These results are taken from PMC9696794, “Synthesis and Antimicrobial Activity of Short Analogues of the Marine Antimicrobial Peptide Turgencin A: Effects of SAR Optimizations, Cys-Cys Cyclization and Lipopeptide Modifications” (International Journal of Molecular Sciences, 2022).

In brackets after ≈: the same amount, converted by molar mass. Where a SMILES comes first, the peptide text is derived from it. Bridges are numbered along the chain shown (N, C = ends). The star is where a group is joined. Octanoyl = CCCCCCCC(=O)*

The subject of assay [1] is C. glutamicum (Cg, ATCC 13032). In words: microbe, parasite or virus in culture. The format is cell-based, Corynebacterium glutamicum. Particulars: ATCC 13032, 24 h. An outline of the steps:
(§1)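 Cultures grown in Mueller–Hinton broth were adjusted by OD600 to 2.5–3 × 10^4 CFU/mL and mixed with two-fold peptide dilutions from 256 to 1 µg/mL. Plates were incubated at 35 °C with OD595 monitored every hour for 24 h.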

Another assay concerns E. coli (Ec, ATCC 25922). In words: microbe, parasite or virus in culture. The format is cell-based, Escherichia coli. Particulars: ATCC 25922, 24 h. An outline of the steps: as §1
The subject of assay [2] is C. albicans (Ca, ATCC 10231). In words: microbe, parasite or virus in culture. The format is cell-based, Candida albicans. Particulars: ATCC 10231, 48 h. An outline of the steps:
(§2)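 Overnight cultures in potato dextrose broth with 2% glucose at 25–30 °C were diluted to approx. 4 × 10^5 spores/mL and mixed 1:1 with two-fold peptide dilutions plated at 256 to 1 µg/mL. After 48 h at room temperature, OD600 was read. MIC was the lowest concentration giving OD below 10% of the growth control, in triplicate.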

Assay [3] deals with fungi (A. pullulans, C. albicans, Rhodotorula sp.). In words: Antifungal MIC assay, all fungi together (range or geometric mean). The assay is classed as cell-based. Particulars: Table S3; MIC >128 set to 128. Put shortly: as §2
A further assay concerns Rhodotorula sp. (Rh). The experiment in a line: microbe, parasite or virus in culture. The format is cell-based. Particulars: 48 h. Put shortly:
as §2

For assay [4], the system named is Gram-negative bacterial strains (E. coli and P. aeruginosa). In words: Antibacterial MIC assay, Gram-negative strains together (range or geometric mean). The assay is classed as cell-based. Particulars: Table S3; MIC >256 set to 256. Put shortly:
as §1

Assay [5] has as its system human red blood cells (RBC). The experiment in a line: Haemolytic activity assay. The assay is classed as cell-based. An outline of the steps: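 Washed human erythrocytes (1% hematocrit final) incubated 1 h at 37 °C with agitation with lipopeptides at 500–3.9 μM in PBS (≤1% DMSO), duplicates. Haemoglobin release read at 545 nm relative to 0.1% Triton X-100; EC50 is 50% haemolysis, averaged from three experiments.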

Assay [6] relates to S. epidermidis RP62A (Se, ATCC 35984). In words: microbe, parasite or virus in culture. The assay is classed as cell-based, Staphylococcus epidermidis. Particulars: ATCC 35984, 24 h. An outline of the steps:
as §1

Assay [7] concerns P. aeruginosa (Pa, ATCC 27853). In words: microbe, parasite or virus in culture. The format is cell-based, Pseudomonas aeruginosa. Particulars: ATCC 27853, 24 h. An outline of the steps:
as §1

For a further assay, the system named is A. pullulans (Ap). In words: microbe, parasite or virus in culture. Particulars: 48 h. The format is cell-based, Aurobasidium pollulans. An outline of the steps: as §2
For assay [8], the system named is B. subtilis (Bs, ATCC 23857). The experiment in a line: microbe, parasite or virus in culture. Particulars: ATCC 23857, 24 h. The assay is classed as cell-based, Bacillus subtilis. An outline of the steps: as §1
In another assay the test system is all bacterial strains. The experiment in a line: Antibacterial MIC assay, all bacterial strains together (range or geometric mean). The assay is classed as cell-based. Put shortly: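 Broth microdilution in Mueller–Hinton broth against B. subtilis, C. glutamicum, S. aureus, S. epidermidis RP62A, E. coli and P. aeruginosa; inoculum 2.5–3 × 10^4 CFU/mL, 35 °C, OD595 read hourly for 24 h. MIC: lowest peptide concentration giving OD below 10% of growth control; geometric mean across strains, triplicate.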

In assay [9] the test system is Gram-positive bacterial strains. Particulars: Table S3; MIC >256 set to 256. An outline of the steps: as §1
Assay [10] relates to S. aureus (Sa, ATCC 9144). The experiment in a line: microbe, parasite or virus in culture. The assay is classed as cell-based, Staphylococcus aureus. Particulars: ATCC 9144, 24 h. An outline of the steps:
as §1

For assay [11], the system named is E. coli NR698 (outer membrane permeable mutant, imp4213). In words: microbe, parasite or virus in culture. Particulars: MC4100 NR698 imp4213, deficient outer membrane. An outline of the steps: (§3)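 Broth microdilution in Mueller–Hinton medium, 2.5–3 × 10^4 CFU/mL inoculum, two-fold peptide dilutions from 256 to 1 µg/mL, 35 °C with OD595 read hourly for 24 h. MIC is the lowest concentration giving OD below 10% of the untreated growth control; run in triplicate.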

In assay [12] the test system is E. coli MC4100 (wild type, WT). In words: microbe, parasite or virus in culture. Particulars: wild type. An outline of the steps:
as §3

As to `CCCCCCCC(=O)N[C@H]1CSSC[C@@H](C(=O)N[C@@H](CCCNC(=N)N)C(=O)N[C@@H](CC(C)C)C(N)=O)NC(=O)[C@H](CCCNC(=N)N)NC(=O)[C@H](Cc2c[nH]c3ccccc23)NC(=O)[C@H](Cc2c[nH]c3ccccc23)NC(=O)CNC(=O)[C@H](Cc2c[nH]c3ccccc23)NC(=O)[C@H](CCCNC(=N)N)NC(=O)[C@H](CCCNC(=N)N)NC(=O)CNC1=O` [Peptide C8-cTurg-6, C8- (CGRRWGWWRC)RL-NH2] (Octanoyl-CGRRWGWWRCRL-NH2; disulfide 1-10), the “Antimicrobial Activity (MIC) Gram + Cg” value in assay [1] came to 4 µg/mL. The “Antimicrobial Activity (MIC) Gram − Ec” value with E. coli (Ec, ATCC 25922) is reported as 8 µg/mL. Further, the “Antimicrobial Activity (MIC) Fungi Ca” value in assay [2] worked out at 64 µg/mL. The “GM of MIC Fungi” value in assay [3] worked out at 51 µg/mL. For the same compound, the “Antimicrobial Activity (MIC) Fungi Rh” value in the assay on Rhodotorula sp. (Rh) is recorded as 32 µg/mL. Moreover, the “GM of MIC G-” value in assay [4] was determined as 11 µg/mL. For the same compound, the “Selectivity index (SI) G-” value in assay [5] (Table S3, EC50/GM of Gram-negative strains, highest tested concentration used where EC50 above it) was found to be 3. The “Selectivity index (SI) G+” value in assay [5] (Table S3, EC50/GM of Gram-positive strains, highest tested concentration used where EC50 above it) was 6. For the same compound, in assay [5] (Table S3, EC50/GM of fungi, highest tested concentration used where EC50 above it), the “Selectivity index (SI) Fungi” value amounted to 1. The “SI (selectivity index = EC50/GM)” value in [5] (haemolytic EC50 over GM of MIC against all bacterial strains, Table 1) is 5. For the same compound, the “RBC Tox. (EC50), haemolytic activity” value in [5] (human RBC, 1 h, 37 °C, concentration giving 50% haemolysis) is 30 µg/mL. The “Antimicrobial Activity (MIC) Gram + Se” value in assay [6] was determined as 4 µg/mL. The “Antimicrobial Activity (MIC) Gram − Pa” value in [7] amounted to 16 µg/mL. In addition, the “Antimicrobial Activity (MIC) Fungi Ap” value with A. pullulans (Ap) worked out at 64 µg/mL. The “Antimicrobial Activity (MIC) Gram + Bs” value in [8] was 4 µg/mL. Moreover, the “GM (geometric mean of the MIC values against all bacterial strains)” value in the assay on all bacterial strains (Table 1, six bacterial strains) is given as 6 µg/mL. Besides, the “GM of MIC Tot. bact.” value with all bacterial strains (Table S3, all bacterial test strains, MIC >256 set to 256) was found to be 6 µg/mL. For the same compound, the “GM of MIC G+” value in [9] turned out to be 5 µg/mL. Further, the “Antimicrobial Activity (MIC) Gram + Sa” value in [10] is recorded as 8 µg/mL. For the same compound, the “MIC E. coli NR698 (mutant)” value in assay [11] was 8 µg/mL (≈ 4.55 µM). In addition, in [12], the “MIC E. coli MC4100 (WT)” value is 8 µg/mL (≈ 4.55 µM).
